Data taken from ChEMBL document CHEMBL4342402, “An insight into medicinal chemistry of anticancer quinoxalines” (Bioorg Med Chem, 2019).
Blank lines part the entries; values can stand above or below the compound they belong to.

Tests used:
MCF7 = assay: Cytotoxicity against human MCF7 cells after 48 hrs by MTT assay; format: functional, cell-based; conditions: MCF7, 48 h
U-87 MG = assay: Antiangiogenic activity in human U87cells after 24 hrs by MTT assay; format: functional, cell-based, U-87MG ATCC
BE = assay: Antiangiogenic activity in human BE cells after 24 hrs by MTT assay; format: functional, cell-based
HUVEC = assay: Antiangiogenic activity in HUVEC after 24 hrs by MTT assay; format: functional, cell-based; conditions: Homo sapiens
[1] = Inhibition of phosphoinositide 3-Kinase (unknown origin); set-up: species or system Homo sapiens
[2] = Inhibition of Marthasterias glacialis oocyte CDK1/cyclin B using histone as substrate in presence of [gamma32P]ATP after 10 mins by scintillation counting method
[3] = molecular target: Cyclin-dependent kinase 5/CDK5 activator 1 (Homo sapiens, UniProt Q00535); assay: Inhibition of CDK5/p25 (unknown origin) expressed in Escherichia coli using histone as substrate in presence of [gamma32P]ATP after 10 mins by scintillation counting method
SK-OV-3 = assay: Antiproliferative activity against human SKOV3 cells; format: functional, cell-based
HCT-15 = assay: Antiproliferative activity against human HCT15 cells; format: functional, cell-based
[4] = Acute toxicity in po dosed Wistar rat measured up to 14 days; format: organism-based; conditions: in vivo
ECa-109 cell line [5] = assay: Cytotoxicity against human ECA109 cells after 72 hrs in presence of 3% O2 by MTT assay; format: functional, cell-based; conditions: ECa-109, 72 h
PC-3 [6] = assay: Cytotoxicity against human PC3 cells after 72 hrs in presence of 20% O2 by MTT assay; format: functional, cell-based; conditions: PC-3, 72 h
ECa-109 cell line [7] = assay: Cytotoxicity against human ECA109 cells after 72 hrs in presence of 20% O2 by MTT assay; format: functional, cell-based; conditions: ECa-109, 72 h
SGC-7901 [8] = assay: Cytotoxicity against human SGC7901 cells after 72 hrs in presence of 3% O2 by MTT assay; format: functional, cell-based; conditions: SGC-7901, 72 h
K562 [9] = assay: Cytotoxicity against human K562 cells after 72 hrs in presence of 3% O2 by MTT assay; format: functional, cell-based; conditions: K562, 72 h
SMMC-7721 [10] = assay: Cytotoxicity against human SMMC7721 cells after 72 hrs in presence of 20% O2 by MTT assay; format: functional, cell-based; conditions: SMMC-7721, 72 h
SGC-7901 [11] = assay: Cytotoxicity against human SGC7901 cells after 72 hrs in presence of 20% O2 by MTT assay; format: functional, cell-based; conditions: SGC-7901, 72 h
SMMC-7721 [12] = assay: Cytotoxicity against human SMMC7721 cells after 72 hrs in presence of 3% O2 by MTT assay; format: functional, cell-based; conditions: SMMC-7721, 72 h
PC-3 [13] = assay: Cytotoxicity against human PC3 cells after 72 hrs in presence of 3% O2 by MTT assay; format: functional, cell-based; conditions: PC-3, 72 h
K562 [14] = assay: Cytotoxicity against human K562 cells after 72 hrs in presence of 20% O2 by MTT assay; format: functional, cell-based; conditions: K562, 72 h
[15] = Half life in mouse plasma; format: ADME, cell-free
[16] = Half life in guinea pig plasma; format: ADME, cell-free, Cavia porcellus
[17] = Half life in rat plasma; format: ADME, cell-free
[18] = Inhibition of PDGFR in mouse NIH/3T3 cells assessed as reduction in tyrosine phosphorylation incubated for 2 hrs by SDS-PAGE based immunoblot assay; format: cell-based; conditions: NIH3T3, 2 h
[19] = molecular target: Proto-oncogene tyrosine-protein kinase Src (Mus musculus, UniProt P05480); assay: Inhibition of SRC in transformed mouse NIH3T3 cells by SDS-PAGE based immunoblot assay; format: cell-based
[20] = molecular target: Epidermal growth factor receptor (Homo sapiens, UniProt P00533); assay: Inhibition of EGFR in human A431 cells incubated for 2 hrs followed by EGF stimulation and measured after 10 mins by immunoblot assay; format: cell-based
[21] = molecular target: Mast/stem cell growth factor receptor Kit (Homo sapiens, UniProt P10721); assay: Inhibition of c-KIT in human M-07e cells assessed as reduction in […] incubated for 2 hrs followed by KIT ligand stimulation by immunoblotting analysis; format: cell-based
[22] = molecular target: Insulin-like growth factor 1 receptor (Homo sapiens, UniProt P08069); assay: Inhibition of IGFR1 (unknown origin) using poly (Glu,Tyr) 4:1 as substrate
[23] = Inhibition of VEGFR (unknown origin); set-up: species or system Homo sapiens
[24] = molecular target: T1, Receptor-type tyrosine-protein kinase FLT3 (Homo sapiens, UniProt P36888); assay: Inhibition of human FLT3 expressed in mouse BAF3 cells assessed as reduction in […] incubated for 2 hrs followed by FLT3 ligand stimulation by immunoblot analysis; format: cell-based
T1 sequence (P36888 whole entry): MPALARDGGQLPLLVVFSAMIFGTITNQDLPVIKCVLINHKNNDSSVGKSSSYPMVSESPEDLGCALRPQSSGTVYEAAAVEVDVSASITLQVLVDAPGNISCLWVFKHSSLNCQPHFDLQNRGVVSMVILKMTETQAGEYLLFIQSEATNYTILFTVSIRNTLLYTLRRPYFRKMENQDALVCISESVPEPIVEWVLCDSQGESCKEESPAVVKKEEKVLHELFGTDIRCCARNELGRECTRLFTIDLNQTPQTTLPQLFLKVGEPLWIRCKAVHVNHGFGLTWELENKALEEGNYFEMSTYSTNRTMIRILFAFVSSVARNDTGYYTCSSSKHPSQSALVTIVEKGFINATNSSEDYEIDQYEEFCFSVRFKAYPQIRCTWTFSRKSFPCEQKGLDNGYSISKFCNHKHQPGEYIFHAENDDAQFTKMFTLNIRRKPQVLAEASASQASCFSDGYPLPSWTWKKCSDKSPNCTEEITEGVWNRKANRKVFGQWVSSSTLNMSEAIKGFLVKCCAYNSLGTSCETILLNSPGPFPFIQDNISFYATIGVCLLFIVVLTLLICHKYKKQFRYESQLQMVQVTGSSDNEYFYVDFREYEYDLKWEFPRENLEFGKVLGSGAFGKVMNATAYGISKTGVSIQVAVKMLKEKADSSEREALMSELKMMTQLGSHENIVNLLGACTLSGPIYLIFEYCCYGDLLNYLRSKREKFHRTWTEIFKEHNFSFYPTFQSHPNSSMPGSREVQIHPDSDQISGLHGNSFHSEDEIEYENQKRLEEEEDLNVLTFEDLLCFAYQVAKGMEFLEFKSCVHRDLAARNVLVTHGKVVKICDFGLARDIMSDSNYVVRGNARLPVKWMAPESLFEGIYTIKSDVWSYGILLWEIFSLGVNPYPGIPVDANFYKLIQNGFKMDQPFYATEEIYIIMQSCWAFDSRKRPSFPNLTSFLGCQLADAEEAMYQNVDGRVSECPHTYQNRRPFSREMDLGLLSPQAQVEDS

[25] = molecular target: Platelet-derived growth factor receptor beta (Homo sapiens, UniProt P09619); assay: Inhibition of human PDGFR beta
Chain of Platelet-derived growth factor receptor beta (P09619 whole entry): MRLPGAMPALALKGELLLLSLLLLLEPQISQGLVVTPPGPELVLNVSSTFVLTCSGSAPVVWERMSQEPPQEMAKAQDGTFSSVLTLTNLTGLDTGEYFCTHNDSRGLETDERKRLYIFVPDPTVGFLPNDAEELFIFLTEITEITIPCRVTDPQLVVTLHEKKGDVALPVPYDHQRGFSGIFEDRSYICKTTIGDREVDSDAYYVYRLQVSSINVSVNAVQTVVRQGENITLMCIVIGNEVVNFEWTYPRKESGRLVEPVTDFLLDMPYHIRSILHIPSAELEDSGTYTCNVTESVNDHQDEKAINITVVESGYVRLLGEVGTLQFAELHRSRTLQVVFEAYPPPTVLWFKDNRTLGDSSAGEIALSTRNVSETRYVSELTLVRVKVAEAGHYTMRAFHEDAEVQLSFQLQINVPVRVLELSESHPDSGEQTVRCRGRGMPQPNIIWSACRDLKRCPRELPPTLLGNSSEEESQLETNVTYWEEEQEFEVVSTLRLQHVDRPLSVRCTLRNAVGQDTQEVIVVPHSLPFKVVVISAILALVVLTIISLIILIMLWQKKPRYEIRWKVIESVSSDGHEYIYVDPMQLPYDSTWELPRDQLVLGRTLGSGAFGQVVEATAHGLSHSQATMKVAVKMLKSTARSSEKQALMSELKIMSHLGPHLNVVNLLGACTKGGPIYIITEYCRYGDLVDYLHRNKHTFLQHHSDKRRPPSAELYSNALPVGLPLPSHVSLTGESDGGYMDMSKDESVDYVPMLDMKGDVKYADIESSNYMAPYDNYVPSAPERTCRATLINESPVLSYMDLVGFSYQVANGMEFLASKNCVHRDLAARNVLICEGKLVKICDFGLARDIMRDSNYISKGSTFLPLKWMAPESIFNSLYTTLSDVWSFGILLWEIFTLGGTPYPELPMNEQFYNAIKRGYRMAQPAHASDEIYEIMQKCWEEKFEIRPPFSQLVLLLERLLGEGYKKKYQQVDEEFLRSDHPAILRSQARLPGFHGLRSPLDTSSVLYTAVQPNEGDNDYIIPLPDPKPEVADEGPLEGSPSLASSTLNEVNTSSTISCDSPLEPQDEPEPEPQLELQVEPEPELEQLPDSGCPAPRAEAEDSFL

Chain of Epidermal growth factor receptor (P00533 whole entry): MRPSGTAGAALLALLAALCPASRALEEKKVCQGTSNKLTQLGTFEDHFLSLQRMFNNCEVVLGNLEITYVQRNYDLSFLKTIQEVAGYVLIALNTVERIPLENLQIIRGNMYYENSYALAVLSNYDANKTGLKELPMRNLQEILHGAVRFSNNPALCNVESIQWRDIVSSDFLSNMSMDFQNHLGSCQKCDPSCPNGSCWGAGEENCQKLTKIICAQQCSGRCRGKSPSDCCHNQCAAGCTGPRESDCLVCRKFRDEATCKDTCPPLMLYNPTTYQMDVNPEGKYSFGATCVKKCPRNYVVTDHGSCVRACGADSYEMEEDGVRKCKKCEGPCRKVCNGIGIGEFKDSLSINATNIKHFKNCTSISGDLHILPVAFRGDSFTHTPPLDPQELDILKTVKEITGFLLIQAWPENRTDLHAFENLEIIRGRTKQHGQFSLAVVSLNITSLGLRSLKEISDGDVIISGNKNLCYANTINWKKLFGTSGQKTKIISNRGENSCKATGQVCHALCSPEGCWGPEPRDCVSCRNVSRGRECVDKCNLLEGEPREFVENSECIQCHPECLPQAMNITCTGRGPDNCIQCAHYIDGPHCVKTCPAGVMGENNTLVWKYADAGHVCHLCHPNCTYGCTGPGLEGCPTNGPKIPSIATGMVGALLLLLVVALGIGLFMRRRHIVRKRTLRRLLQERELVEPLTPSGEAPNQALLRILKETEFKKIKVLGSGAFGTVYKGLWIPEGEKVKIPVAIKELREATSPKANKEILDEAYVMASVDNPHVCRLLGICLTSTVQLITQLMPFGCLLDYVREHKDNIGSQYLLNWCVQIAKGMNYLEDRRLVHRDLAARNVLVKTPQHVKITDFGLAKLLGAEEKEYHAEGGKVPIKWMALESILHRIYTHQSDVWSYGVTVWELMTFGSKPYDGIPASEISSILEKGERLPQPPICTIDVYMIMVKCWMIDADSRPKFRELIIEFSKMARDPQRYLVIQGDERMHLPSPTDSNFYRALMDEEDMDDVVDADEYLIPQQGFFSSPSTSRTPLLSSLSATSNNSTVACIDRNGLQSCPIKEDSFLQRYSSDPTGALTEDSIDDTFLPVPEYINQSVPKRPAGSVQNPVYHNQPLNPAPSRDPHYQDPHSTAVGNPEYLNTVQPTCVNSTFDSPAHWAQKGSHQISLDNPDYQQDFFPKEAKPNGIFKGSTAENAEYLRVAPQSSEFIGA
Chain of Cyclin-dependent kinase 5/CDK5 activator 1 (Q00535 whole entry): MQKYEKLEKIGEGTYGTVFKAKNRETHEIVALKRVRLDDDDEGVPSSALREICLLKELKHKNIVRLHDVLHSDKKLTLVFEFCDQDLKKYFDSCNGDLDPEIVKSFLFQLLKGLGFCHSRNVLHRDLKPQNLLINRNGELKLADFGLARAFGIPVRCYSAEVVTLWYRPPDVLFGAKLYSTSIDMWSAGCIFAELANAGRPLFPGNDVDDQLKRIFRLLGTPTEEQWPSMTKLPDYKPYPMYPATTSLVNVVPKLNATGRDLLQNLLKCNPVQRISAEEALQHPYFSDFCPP
Chain of Cyclin-dependent kinase 5/CDK5 activator 1 (Q15078 whole entry, further chain): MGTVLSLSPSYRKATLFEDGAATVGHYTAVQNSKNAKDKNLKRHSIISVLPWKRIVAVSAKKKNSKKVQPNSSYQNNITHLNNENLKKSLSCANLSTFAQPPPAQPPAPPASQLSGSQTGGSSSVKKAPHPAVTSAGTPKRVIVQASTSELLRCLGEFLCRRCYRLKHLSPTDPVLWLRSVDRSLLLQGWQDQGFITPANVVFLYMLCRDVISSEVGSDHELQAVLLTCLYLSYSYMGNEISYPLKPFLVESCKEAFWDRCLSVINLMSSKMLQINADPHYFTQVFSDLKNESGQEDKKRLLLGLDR
Chain of Mast/stem cell growth factor receptor Kit (P10721 whole entry): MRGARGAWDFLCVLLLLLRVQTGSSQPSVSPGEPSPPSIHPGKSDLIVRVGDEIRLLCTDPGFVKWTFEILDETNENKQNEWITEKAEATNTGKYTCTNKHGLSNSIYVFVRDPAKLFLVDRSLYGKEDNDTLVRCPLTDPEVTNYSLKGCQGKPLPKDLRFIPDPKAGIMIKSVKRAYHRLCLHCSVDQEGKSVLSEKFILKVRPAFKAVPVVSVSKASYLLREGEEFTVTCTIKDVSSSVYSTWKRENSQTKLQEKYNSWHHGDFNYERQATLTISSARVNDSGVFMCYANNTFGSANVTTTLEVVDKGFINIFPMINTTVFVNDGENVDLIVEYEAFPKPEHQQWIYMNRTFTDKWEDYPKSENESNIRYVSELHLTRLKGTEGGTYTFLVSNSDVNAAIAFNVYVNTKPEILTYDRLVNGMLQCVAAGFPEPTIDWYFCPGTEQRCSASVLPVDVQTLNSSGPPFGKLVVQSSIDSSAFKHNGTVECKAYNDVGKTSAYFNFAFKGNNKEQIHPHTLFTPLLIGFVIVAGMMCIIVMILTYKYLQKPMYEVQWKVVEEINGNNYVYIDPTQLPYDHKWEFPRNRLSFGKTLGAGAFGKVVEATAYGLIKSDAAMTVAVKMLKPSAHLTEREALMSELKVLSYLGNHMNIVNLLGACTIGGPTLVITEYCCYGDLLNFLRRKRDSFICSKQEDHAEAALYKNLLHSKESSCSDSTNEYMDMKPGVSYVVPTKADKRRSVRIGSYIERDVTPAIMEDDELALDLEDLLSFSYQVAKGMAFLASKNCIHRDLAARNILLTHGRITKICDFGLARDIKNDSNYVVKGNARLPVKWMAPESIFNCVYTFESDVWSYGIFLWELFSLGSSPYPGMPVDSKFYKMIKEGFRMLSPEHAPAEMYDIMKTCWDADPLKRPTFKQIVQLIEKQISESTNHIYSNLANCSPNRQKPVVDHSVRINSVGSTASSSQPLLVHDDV
Chain of Proto-oncogene tyrosine-protein kinase Src (P05480 2-535 limits assumed): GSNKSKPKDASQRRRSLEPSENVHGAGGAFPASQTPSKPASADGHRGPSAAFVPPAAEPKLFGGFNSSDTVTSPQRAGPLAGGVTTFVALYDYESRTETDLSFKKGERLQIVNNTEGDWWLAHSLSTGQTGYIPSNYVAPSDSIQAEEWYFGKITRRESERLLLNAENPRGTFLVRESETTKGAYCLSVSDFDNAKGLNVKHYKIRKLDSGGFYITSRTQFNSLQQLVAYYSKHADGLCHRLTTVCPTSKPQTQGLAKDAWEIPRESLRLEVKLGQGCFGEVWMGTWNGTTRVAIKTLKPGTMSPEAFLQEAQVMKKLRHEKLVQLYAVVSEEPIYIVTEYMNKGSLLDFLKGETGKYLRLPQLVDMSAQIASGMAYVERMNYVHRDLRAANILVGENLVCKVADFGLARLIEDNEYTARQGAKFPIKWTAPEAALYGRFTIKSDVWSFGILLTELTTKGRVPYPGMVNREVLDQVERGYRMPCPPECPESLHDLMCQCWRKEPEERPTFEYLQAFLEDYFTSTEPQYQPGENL

SMILES: C[n+]1c2ccccc2nc2c1c1cc(F)ccc1n2CCCCCC[N+]1(C)CCCCC1
IC50 (MCF7): 1.6 µM

SMILES: C[n+]1c2ccccc2nc2c1c1cc(F)ccc1n2CCCC[N+]1(C)CCCC1
IC50 (MCF7): 1.8 µM

SMILES: CC(=O)Oc1ccc(-c2cnc3cc(C)c(C)cc3n2)cc1O
IC50 (U-87 MG): 42.3 µM
IC50 (BE): > 50 µM
IC50 (HUVEC): 54.4 µM

SMILES: Cc1cc2ncc(-c3ccc(O)c(O)c3)nc2cc1C
IC50 (U-87 MG): > 50 µM
IC50 (BE): > 50 µM
IC50 (HUVEC): 24.7 µM

SMILES: CCCCCNCc1ccc2c(c1)C(=O)c1nccnc1C2=O
IC50 (SK-OV-3): 0.4 µM
IC50 (HCT-15): 0.05 µM

SMILES: CC(=O)c1c(C)[n+]([O-])c2ccccc2[n+]1[O-] [MEQUINDOX]
LD50 at 336 h [4]: 550 mg/kg

SMILES: CCS(=O)(=O)c1c(-c2ccc(Br)cc2)[n+]([O-])c2cc(C)ccc2[n+]1[O-]
IC50 (ECa-109 cell line [5]): 6.38 µM
IC50 (PC-3 [6]): < 10 µM
IC50 (ECa-109 cell line [7]): < 10 µM
IC50 (SGC-7901 [8]): 8.88 µM
IC50 (K562 [9]): 0.18 µM
IC50 (SMMC-7721 [10]): < 10 µM
IC50 (SGC-7901 [11]): < 10 µM
IC50 (SMMC-7721 [12]): 3.17 µM
IC50 (PC-3 [13]): 4.98 µM
IC50 (K562 [14]): < 10 µM

SMILES: COc1ccc(-c2cnc3cc(C)c(C)cc3n2)cc1O
IC50 (U-87 MG): > 50 µM
IC50 (BE): > 50 µM
IC50 (HUVEC): > 100 µM

SMILES: C[n+]1c2ccccc2nc2c1c1cc(F)ccc1n2CCCC[N+]1(C)CCCCC1
IC50 (MCF7): 1.94 µM

Further lines, with some results ahead:

IC50 [1]: 0.04 µM
SMILES: O=C(c1ccccc1)N1CCN(c2nc3ccccc3nc2S(=O)(=O)c2ccccc2)CC1

IC50 [2]: 0.6 µM
IC50 [3]: 0.4 µM
SMILES: Nc1n[nH]c2nc3ccccc3nc12 [QUINOXALINE1]

IC50 [1]: 0.04 µM
SMILES: NC(=O)C1CCN(c2nc3ccccc3nc2S(=O)(=O)c2ccc(Br)cc2)CC1

IC50 [1]: 0.04 µM
SMILES: O=S(=O)(c1ccc(Br)cc1)c1nc2ccccc2nc1N1CCC(O)CC1

IC50 [1]: 0.04 µM
SMILES: O=S(=O)(c1ccccc1)c1nc2ccccc2nc1N1CCOCC1

half-life [15]: 61 min
half-life [16]: 4.02 min
half-life [17]: 16.7 min
SMILES: CC(C)OC(=O)N1CCN(c2ncc(-c3ccc4nccnc4c3)cc2C#N)CC1

IC50 (U-87 MG): 15.9 µM
SMILES: Cc1cc2ncc(-c3ccc(OCc4ccccc4)c(O)c3)nc2cc1C
IC50 (BE): 41 µM
IC50 (HUVEC): > 100 µM

IC50 [18]: 0.8 µM
IC50 [19]: > 30 µM
IC50 [20]: > 30 µM
IC50 [21]: 1 to 3 µM
IC50 [22]: > 30 µM
IC50 [23]: > 30 µM
IC50 [24]: 1 to 3 µM
IC50 [25]: 0.09 µM
SMILES: Cc1nc2cc3nc(-c4cccs4)cnc3cc2n1C
